How the values were obtained:
[1] = tested on: spleen lymphocytes stimulated with Ehrlich ascites carcinoma cells; test: Cancer cell-specific proliferation of spleen lymphocytes from treated tumor-bearing mice; format: in vivo, ddY mice; conditions: for 3H-thymidine uptake: 10 mg/kg intraperitoneal
Description: ddY mice (female, 7 weeks old) were purchased from Japan SLC and pre-bred 1 week before using in experiments.
1×10^6 Ehrlich ascites carcinoma cells were intraperitoneally inoculated to each mouse. 10 mg/kg of cyclopentene, 30 mg/kg of GM or 10 mg/kg of dipropionylcyclopentene was intraperitoneally administered to the mouse on the day after the inoculation. Saline was administered to a control mouse.
A spleen was taken out from the mouse 10 days after the inoculation with cancer cells, finely minced and suspended in RPMI-1640 medium (Gibco) containing 10% FCS (HyClone) to obtain a single cell suspension. Adhesive cells in the cell suspension adhered to a plastic Petri dish were removed and non-adhesive cells were used as spleen lymphocytes.
The spleen lymphocytes were suspended in RPMI-1640 medium containing 10% FCS at a concentration of 2×10^6/ml. 100 μl/well of the suspension was seeded into a microtiter plate.
Stimulated cells were prepared as follows. Mitomycin C (Kyowa Hakko Kogyo) was added to a concentration of 50 μg/ml to Ehrlich ascites carcinoma cells suspended in RPMI-1640 medium at a concentration of 2×10^6 cells/ml. The cells were treated at 37° C. for 30 minutes, washed twice and then suspended in RPMI-1640 medium containing 10% FCS to prepare stimulated cells at a concentration of 2×10^6 cells/ml. 100 μl of the thus prepared stimulated cells was overlaid onto each well of the plate into which 100 μl/well of the spleen lymphocytes had been added. The plate was incubated at 37° C. for 5 days in a 5% CO2 incubator. 37 kBq of ^3H-thymidine (Daiichi Pure Chemicals) was added to the well to pulse-label the cells on the day before the completion of the cultivation. After cultivation, the cells were harvested on a glass filter to measure the radioactivity.

[2] = tested on: λ-carrageenan pedal edema; test: Carrageenan induced pedal edema; format: in vivo, Lewis rats; conditions: rat, 3 hours after carrageenan
Description: Lewis rats (male, 9 weeks old, weighing about 250 g) were purchased from Seac Yoshitomi.
Rats were fasted from 18 hours before the start of the experiments. Dipropionylcyclopentenone, dihexanoylcyclopentenone, di-2-hexenoylcyclopentenone, diisobutyrylcyclopentenone or dibenzoylcyclopentenone dissolved in olive oil (Nacalai Tesque) was orally administered to 4 rats per group at 1 or 10 mg/10 ml/kg.
100 μl of 1% λ-carrageenan (Wako Pure Chemical Industries) suspension in saline (Otsuka Pharmaceutical) was injected into the sole of right paw of a rat 0.5 hour after the administration of test substance to induce pedal edema. The volume of the right foot of the rat was measured using an instrument for measuring pedal volume (Ugo Basile) 3 hours after the injection with carrageenan. The measurements were expressed as the rate of increase calculated based on the volume of the right foot of each rat measured before the administration with carrageenan.
FIG. 5 illustrate the relationship between the amount of cyclopentenone derivative administered and the rate of increase in edema in foot. The horizontal axis represents the dose […] and the vertical axis represents the rate of increase (%).

[3] = tested on: 70-kDa heat shock protein; test: Induction of 70-kDa heat shock protein in HL-60 cells (Western blot); format: cell-based; design: key to Degree of induction of 70-kDa heat shock protein: − means that no induction was observed; ± means that a slight induction was observed; + represents the induction level; ++: Increased number of + means increased induction; +++: Increased number of + means increased induction; conditions: HL-60, 6 hours
Description: (1) 5 ml of RPMI 1640 medium containing 10% fetal calf serum and HL-60 (ATCC CCL-240) cells at a concentration of 2×10^5 cells/ml was placed in each well of a 6-well plate. The plate was incubated at 37° C. for 24 hours in the presence of 5% CO2. Dipropionylcyclopentenone, diisobutyrylcyclopentenone or di-2-hexenoylcyclopentenone at a final concentration of 0, 0.63, 1.3, 2.5, 5, 10 or 20 μM was then added thereto. The incubation was continued for additional 6 hours.
After incubation, the cell number was counted. The cells were harvested by centrifugation, washed with PBS to prepare cells treated with one of the samples. Cells that were cultured in the same manner after heated at 45° C. for 10 minutes were also prepared.
These treated cells were used for SDS-PAGE according to the method as described in Molecular Cloning [Cold Spring Harbor Laboratory Press (1989)]. The treated cells were suspended in SDS-PAGE Sample buffer at a concentration of 2.5×10^6 cells/ml. The cell suspensions were treated at 100° C. for 10 minutes. 5 μl each of the cell suspensions was applied to two SDS-PAGE gels (5% stacking gel, 10% separation gel) and electrophoresed. One of the gels was subjected to Coomassie staining. The other gel was blotted onto a polyvinylidene difluoride transfer membrane (Immobilon™, Millipore, Cat. #IPVH000-10). The membrane was blocked at 4° C. overnight using Block Ace (Dainippon Pharmaceutical, Cat. #UK-B25).
The blocked membrane was reacted with a monoclonal antibody HSP72/73(Ab-1) (Oncogene Research Products, Cat. #HSP01), which specifically reacts with heat-inducible 70-kDa heat shock protein. The membrane was washed with TBS containing 0.05% Tween 20 followed by TBS. The membrane was then reacted with a peroxidase-conjugated secondary antibody HRP-Rabbit Anti-Mouse IgG (H+L) (Zymed Laboratories, Inc., Cat. #61-6520), and then washed as described above. The membrane reacted with the primary and secondary antibodies was reacted with a chemiluminol reagent Renaissance™ (Dupont NEN, Cat. #NEL-100). The membrane was then exposed to an X-ray film to confirm the induction of 70-kDa heat shock protein.

[4] = tested on: Ehrlich ascites carcinoma (EAC); test: Ascitic cancer EAC, prolongation of survival; format: in vivo, ddY mouse; conditions: 5 successive days; for 30-day survival number: groups of 8 mice
Description: (3) The carcinostatic activities of dipropionylcyclopentenone and diisobutyrylcyclopentenone against various ascitic cancers were examined using two types of cancer cells, Ehrlich ascites carcinoma (EAC) and Meth A, administered intraperitoneally or orally at a varying dose.
Dipropionylcyclopentenone or diisobutyrylcyclopentenone was intraperitoneally or orally administered for 5 successive days from the day after the transplantation with cancer cells. Injectable distilled water was administered to a control group in a similar manner. Average days of survival, prolongation rate and 30-day survival number were calculated for groups each consisting of 8 mice.

CCC(=O)OC1C=CC(=O)C1OC(=O)CC (centres unmarked)
3H-thymidine uptake ([1]; no stimulation with cancer cell): 9250 CPM
3H-thymidine uptake ([1]; stimulation with cancer cell): 20748 CPM
Growth of spleen lymphocytes on stimulation with cancer cells (statement) ([1]; mice administered intraperitoneally): significantly enhanced
Suppression of edema in foot (FIG. 5) ([2]; 1 mg/kg oral): Tendency to suppress the edema in the foot
Suppression of edema in foot (FIG. 5) ([2]; 10 mg/kg oral): significant suppression
Degree of induction of 70-kDa heat shock protein ([3]; 0.63 μM): −
Degree of induction of 70-kDa heat shock protein ([3]; 1.3 μM): ±
Degree of induction of 70-kDa heat shock protein ([3]; 2.5 μM): +
Degree of induction of 70-kDa heat shock protein ([3]; 5 μM): +++
Degree of induction of 70-kDa heat shock protein ([3]; 10 μM): ++
Degree of induction of 70-kDa heat shock protein ([3]; 20 μM): ++
Average days of survival ([4]; intraperitoneal 10 mg/kg): 28.1 days
Prolongation rate ([4]; intraperitoneal 10 mg/kg): >225%
30-day survival number ([4]; intraperitoneal 10 mg/kg): 6
Average days of survival ([4]; oral 30 mg/kg): 24.1 days
Prolongation rate ([4]; oral 30 mg/kg): >193%
30-day survival number ([4]; oral 30 mg/kg): 4

Reference: US6548543B1, “Remedies or preventives containing cyclopentenone compounds as the active ingredient” (Takara Shuzo Co., Ltd., priority 1998, dated 2003)
